According to patent publication US8791269B2, “Complex of amorphous tomoxiprole and cyclodextrin with fast dissolution rate and process for the preparation thereof” (Fondazione Istituto Insubrico di Ricerca per la Vita, priority 2011, dated 2014):

What was measured:
[1] = Surface wettability (water contact angle); type: physicochemical; settings: at any pH
in vivo = settings: rat, po, 5 mg/kg
Method: To assess whether the faster dissolution rate observed for the complex actually corresponds to a faster in vivo absorption, the pharmacokinetic behaviour of tomoxiprole (TMX) and tomoxiprole-2-hydroxypropyl-beta-cyclodextrin complex (TMX/HPBCD) in rats have been compared.
Experimental design: Two groups of four rats each have been used. To the rats of each group was orally given either a dose of 5 mg/Kg of tomoxiprole or a dose of complex tomoxiprole-2-hydroxypropyl-beta-ciclodestrin corresponding to 5 mg/Kg of active substance. […] Samples of blood were collected at 0.3, 0.6, 1, 1.5, 2 and 6 hours, and plasma separated by centrifugation. Sample processing and HPLC analyses were performed as previously described (A. Bernareggi et al. J. liquid chromatography 1984, 7, 2093-2101). The pharmacokinetic parameters calculated from the plasma levels of tomoxiprole observed with the two formulations are reported in the following Table 2

[2] = orally administered; cited from earlier work
[3] = Dissolution rate in buffer solution HCl-KCl pH 1.5; type: physicochemical; settings: for Substance dissolved (concentration of tomoxiprole): buffer HCl-KCl pH 1.5
Method: The dissolution rate of the complex tomoxiprole-2-hydroxypropyl-beta-cyclodextrin obtained in Example 1 is determined by the following method.
In a flask provided with magnetic mixer 600 mg of tomoxiprole-2-hydroxypropyl-beta-cyclodextrin complex (corresponding to 100 mg of tomoxiprole) are added to 10 ml of a buffer solution HCl—KCl pH 1.5. Samples of the suspension are collected at intervals of time, clarified by centrifugation and the tomoxiprole concentration in the clear supernatant is determined by UV absorption at 328 nm.
The method was the same of that described above, with the exception that 100 mg of tomoxiprole were added instead of 600 mg of complex tomoxiprole/HPBCD

[4] = active doses; cited from earlier work

COc1ccc(-c2nc3c4ccccc4ccc3n2C(C)C)cc1 [Tomoxiprole crystals, 2-(4-methoxyphenyl)-3-(1-methylethyl)-3H-naphth[1,2-d] imidazole]
Water contact angle [1]: 81 °
AUC (in vivo): 46 ng·h/mL
AUC(0-t) (in vivo): 1170 ng·h/mL
Cmax (in vivo): 220 ng/mL
Tmax (in vivo): 1.5 h
Time of maximum concentration in the blood after administration [2]: over one hour
Time at which the saturation concentration is reached ([3]; buffer pH 1.5): over 8 min
Substance dissolved (concentration of tomoxiprole) ([3]; time 0.5 min): 1 mg/mL
Substance dissolved (concentration of tomoxiprole) ([3]; time 2 min): 3 mg/mL
Substance dissolved (concentration of tomoxiprole) ([3]; time 4 min): 4 mg/mL
Substance dissolved (concentration of tomoxiprole) ([3]; time 8 min): 4.9 mg/mL
Substance dissolved (concentration of tomoxiprole) ([3]; time 12 min): 5.2 mg/mL
Ulcerogenic activity [4]: devoid of ulcerogenic activity
